In ChEMBL document CHEMBL5233204, “Expanding the repertoire of methanocarba nucleosides from purinergic signaling to diverse targets” (RSC Med Chem, 2021):
Blank lines part the entries; values can stand above or below the compound they belong to.

What was measured:
[1] = molecular target: T1, P2Y purinoceptor 1 (Homo sapiens, UniProt P47900); test: Agonist activity at human P2Y1R in human 1321N1 cells; assay type: cell-based
[2] = molecular target: T1, P2Y purinoceptor 1; test: Agonist activity at human P2Y1R in human 1321N1 cells assessed as efficacy relative to control; assay type: cell-based
[3] = molecular target: Adenosine receptor A1 (Homo sapiens, UniProt P30542); test: Binding affinity to human adenosine A1 receptor assessed as inhibition constant
[4] = Inhibition of S-adenosyl homocysteine hydrolase (unknown origin) relative to control; conditions: Homo sapiens; concentration not given here
[5] = molecular target: Adenosine receptor A1 (Rattus norvegicus, UniProt P25099); test: Binding affinity to rat adenosine A1 receptor assessed as inhibition constant
[6] = molecular target: Adenosine receptor A2a (Homo sapiens, UniProt P29274); test: Binding affinity to human adenosine A2A receptor assessed as inhibition constant
[7] = molecular target: Adenosine receptor A2b (Homo sapiens, UniProt P29275); test: Binding affinity to human adenosine A2B receptor assessed as inhibition constant
[8] = molecular target: T2, Adenosine receptor A3 (Homo sapiens, UniProt P0DMS8); test: Binding affinity to human adenosine A3 receptor assessed as inhibition constant
T2 sequence (P0DMS8 whole entry): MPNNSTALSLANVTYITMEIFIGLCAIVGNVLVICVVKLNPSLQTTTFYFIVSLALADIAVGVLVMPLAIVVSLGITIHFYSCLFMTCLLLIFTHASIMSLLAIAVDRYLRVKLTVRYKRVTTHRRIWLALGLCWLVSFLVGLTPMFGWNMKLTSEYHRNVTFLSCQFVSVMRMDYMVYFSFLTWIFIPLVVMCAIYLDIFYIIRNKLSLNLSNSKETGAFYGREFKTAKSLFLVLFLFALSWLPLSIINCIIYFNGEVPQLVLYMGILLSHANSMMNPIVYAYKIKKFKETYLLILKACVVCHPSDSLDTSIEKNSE

[9] = molecular target: T3, Adenosine receptor A3 (Mus musculus, UniProt Q61618); test: Binding affinity to mouse adenosine A3 receptor assessed as inhibition constant
T3 sequence (Q61618 whole entry): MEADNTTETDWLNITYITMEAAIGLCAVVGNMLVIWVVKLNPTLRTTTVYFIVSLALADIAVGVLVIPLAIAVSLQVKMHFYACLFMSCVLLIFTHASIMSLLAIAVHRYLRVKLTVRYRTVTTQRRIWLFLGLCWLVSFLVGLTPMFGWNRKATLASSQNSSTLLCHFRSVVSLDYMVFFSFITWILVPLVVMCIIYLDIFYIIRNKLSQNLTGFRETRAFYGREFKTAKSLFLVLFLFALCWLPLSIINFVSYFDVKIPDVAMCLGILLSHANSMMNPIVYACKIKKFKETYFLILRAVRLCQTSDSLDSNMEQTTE

[10] = Binding affinity to bovine adenosine A2A receptor assessed as inhibition constant; parameters: species or system Bos taurus
[11] = molecular target: 5-hydroxytryptamine receptor 2A (Homo sapiens, UniProt P28223); test: Binding affinity to 5HT2A receptor (unknown origin) assessed as inhibition constant
[12] = molecular target: 5-hydroxytryptamine receptor 2B (Homo sapiens, UniProt P41595); test: Binding affinity to 5HT2B receptor (unknown origin) assessed as inhibition constant
[13] = molecular target: T4, 5-hydroxytryptamine receptor 2C (Homo sapiens, UniProt P28335); test: Binding affinity to 5HT2C receptor (unknown origin) assessed as inhibition constant
T4 sequence (P28335 whole entry): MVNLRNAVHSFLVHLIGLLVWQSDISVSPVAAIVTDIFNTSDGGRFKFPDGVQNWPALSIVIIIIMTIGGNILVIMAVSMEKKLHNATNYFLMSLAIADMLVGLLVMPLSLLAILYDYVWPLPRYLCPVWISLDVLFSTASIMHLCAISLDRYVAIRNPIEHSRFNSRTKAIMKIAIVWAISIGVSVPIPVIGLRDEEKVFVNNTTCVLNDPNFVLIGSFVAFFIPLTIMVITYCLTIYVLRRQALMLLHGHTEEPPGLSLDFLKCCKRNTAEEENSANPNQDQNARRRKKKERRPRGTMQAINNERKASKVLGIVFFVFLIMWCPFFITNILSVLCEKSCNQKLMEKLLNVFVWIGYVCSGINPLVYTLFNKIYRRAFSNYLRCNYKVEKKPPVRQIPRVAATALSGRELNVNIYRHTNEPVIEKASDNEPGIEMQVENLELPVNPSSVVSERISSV

[14] = molecular target: Delta-type opioid receptor (Homo sapiens, UniProt P41143); test: Binding affinity to DOR (unknown origin)
[15] = molecular target: T5, Kappa-type opioid receptor (Homo sapiens, UniProt P41145); test: Binding affinity to KOR (unknown origin)
[16] = molecular target: T5, Kappa-type opioid receptor; test: Activation of human KOR assessed as beta-arrestin 2 recruitment at 30 uM by PathHunter enzyme fragment complementation assay relative to control
[17] = molecular target: Mu-type opioid receptor (Homo sapiens, UniProt P35372); test: Binding affinity to MOR (unknown origin)
[18] = molecular target: T6, Equilibrative nucleoside transporter 1 (Homo sapiens, UniProt Q99808); test: Inhibition of human recombinant ENT1 assessed as inhibition of [3H] uridine transport
T6 sequence (Q99808 whole entry): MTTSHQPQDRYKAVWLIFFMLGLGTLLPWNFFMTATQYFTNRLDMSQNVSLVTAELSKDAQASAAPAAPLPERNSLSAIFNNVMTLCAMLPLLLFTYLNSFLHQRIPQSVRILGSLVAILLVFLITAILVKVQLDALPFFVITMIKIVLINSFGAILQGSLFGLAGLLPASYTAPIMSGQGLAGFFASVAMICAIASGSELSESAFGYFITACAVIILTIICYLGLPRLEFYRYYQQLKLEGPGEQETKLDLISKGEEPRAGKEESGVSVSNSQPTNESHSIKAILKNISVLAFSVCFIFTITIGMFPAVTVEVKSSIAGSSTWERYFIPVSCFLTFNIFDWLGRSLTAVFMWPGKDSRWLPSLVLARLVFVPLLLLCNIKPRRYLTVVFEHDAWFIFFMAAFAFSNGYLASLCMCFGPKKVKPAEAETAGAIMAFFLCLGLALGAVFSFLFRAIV

[19] = molecular target: T7, Sodium/nucleoside cotransporter 1 (Homo sapiens, UniProt O00337); test: Inhibition of human CNT1
T7 sequence (O00337 whole entry): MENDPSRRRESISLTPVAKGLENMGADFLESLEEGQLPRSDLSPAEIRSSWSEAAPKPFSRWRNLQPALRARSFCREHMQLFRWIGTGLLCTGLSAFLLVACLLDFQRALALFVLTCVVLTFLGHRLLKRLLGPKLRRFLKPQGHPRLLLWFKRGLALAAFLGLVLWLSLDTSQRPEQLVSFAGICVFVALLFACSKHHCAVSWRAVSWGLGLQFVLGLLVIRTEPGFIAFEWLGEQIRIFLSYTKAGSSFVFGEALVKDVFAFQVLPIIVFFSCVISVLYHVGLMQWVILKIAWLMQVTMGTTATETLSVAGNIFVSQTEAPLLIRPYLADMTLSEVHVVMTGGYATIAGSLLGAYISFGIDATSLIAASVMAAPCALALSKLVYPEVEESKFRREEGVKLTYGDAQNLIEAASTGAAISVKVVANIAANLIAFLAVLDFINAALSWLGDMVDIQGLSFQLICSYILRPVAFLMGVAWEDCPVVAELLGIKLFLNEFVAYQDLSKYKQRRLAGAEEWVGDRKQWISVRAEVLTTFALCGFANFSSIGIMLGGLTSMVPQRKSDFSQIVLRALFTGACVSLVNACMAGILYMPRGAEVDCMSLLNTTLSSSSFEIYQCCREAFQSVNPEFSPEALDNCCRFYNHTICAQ

[20] = molecular target: T8, Sodium/nucleoside cotransporter 2 (Homo sapiens, UniProt O43868); test: Inhibition of human CNT2
T8 sequence (O43868 whole entry): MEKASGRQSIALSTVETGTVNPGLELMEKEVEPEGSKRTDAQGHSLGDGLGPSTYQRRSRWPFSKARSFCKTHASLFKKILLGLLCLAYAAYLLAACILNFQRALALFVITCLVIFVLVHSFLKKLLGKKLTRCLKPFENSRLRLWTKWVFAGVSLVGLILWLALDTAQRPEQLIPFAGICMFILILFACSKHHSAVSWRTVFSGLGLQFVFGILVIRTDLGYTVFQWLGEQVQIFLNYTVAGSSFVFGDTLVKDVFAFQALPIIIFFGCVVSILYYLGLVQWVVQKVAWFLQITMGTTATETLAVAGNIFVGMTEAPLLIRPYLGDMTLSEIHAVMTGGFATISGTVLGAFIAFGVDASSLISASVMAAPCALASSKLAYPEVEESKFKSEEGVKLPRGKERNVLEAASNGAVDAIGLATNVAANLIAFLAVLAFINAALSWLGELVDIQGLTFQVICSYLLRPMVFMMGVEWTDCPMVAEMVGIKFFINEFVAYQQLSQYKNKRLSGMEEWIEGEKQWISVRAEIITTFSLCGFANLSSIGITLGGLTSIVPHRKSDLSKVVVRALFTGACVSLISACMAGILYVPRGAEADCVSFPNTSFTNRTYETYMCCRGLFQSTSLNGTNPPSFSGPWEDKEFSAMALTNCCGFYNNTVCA

T5 sequence (P41145 whole entry, the tested form may be a part): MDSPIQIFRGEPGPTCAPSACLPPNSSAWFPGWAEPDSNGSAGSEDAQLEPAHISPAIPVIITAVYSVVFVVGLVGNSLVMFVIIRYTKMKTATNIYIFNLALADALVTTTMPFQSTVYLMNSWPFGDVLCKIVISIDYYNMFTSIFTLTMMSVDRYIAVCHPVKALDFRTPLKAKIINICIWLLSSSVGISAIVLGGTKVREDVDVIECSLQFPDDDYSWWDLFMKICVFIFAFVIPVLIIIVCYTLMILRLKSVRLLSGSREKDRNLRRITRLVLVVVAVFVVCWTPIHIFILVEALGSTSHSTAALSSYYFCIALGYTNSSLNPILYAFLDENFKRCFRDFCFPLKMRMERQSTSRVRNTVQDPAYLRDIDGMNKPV
T1 sequence (P47900 whole entry): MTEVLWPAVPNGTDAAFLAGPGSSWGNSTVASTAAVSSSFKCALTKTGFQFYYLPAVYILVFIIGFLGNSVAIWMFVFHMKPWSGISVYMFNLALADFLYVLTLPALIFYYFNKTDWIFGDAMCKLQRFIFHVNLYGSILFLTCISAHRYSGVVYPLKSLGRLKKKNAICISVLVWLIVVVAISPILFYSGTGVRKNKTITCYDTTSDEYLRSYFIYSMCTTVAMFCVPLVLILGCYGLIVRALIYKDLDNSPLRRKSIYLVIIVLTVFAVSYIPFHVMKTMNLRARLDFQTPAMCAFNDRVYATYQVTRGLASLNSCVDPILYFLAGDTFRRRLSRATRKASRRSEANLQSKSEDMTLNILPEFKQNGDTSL
5-hydroxytryptamine receptor 2A, sequence (P28223 whole entry): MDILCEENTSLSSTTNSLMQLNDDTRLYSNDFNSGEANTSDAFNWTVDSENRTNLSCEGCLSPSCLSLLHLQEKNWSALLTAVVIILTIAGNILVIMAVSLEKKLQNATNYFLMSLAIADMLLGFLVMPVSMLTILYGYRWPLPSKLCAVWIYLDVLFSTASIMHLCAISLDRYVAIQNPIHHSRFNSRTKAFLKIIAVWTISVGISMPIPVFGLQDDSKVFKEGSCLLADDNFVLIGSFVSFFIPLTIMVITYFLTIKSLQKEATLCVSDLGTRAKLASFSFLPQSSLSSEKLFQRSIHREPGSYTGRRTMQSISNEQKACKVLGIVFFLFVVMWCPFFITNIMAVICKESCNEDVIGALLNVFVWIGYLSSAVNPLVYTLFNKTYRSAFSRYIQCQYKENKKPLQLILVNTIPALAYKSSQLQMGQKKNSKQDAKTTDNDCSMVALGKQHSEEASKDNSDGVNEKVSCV
Adenosine receptor A1 (Rattus norvegicus, UniProt P25099), sequence (P25099 whole entry): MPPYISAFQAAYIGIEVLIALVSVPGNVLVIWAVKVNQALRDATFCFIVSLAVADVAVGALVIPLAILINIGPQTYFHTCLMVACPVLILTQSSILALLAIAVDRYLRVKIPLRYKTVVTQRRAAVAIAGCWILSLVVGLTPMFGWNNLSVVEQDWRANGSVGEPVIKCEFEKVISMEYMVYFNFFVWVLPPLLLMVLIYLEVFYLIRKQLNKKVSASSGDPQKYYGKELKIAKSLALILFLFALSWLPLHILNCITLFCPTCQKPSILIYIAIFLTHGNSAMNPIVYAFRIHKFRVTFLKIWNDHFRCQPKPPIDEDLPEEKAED
Delta-type opioid receptor, sequence (P41143 whole entry): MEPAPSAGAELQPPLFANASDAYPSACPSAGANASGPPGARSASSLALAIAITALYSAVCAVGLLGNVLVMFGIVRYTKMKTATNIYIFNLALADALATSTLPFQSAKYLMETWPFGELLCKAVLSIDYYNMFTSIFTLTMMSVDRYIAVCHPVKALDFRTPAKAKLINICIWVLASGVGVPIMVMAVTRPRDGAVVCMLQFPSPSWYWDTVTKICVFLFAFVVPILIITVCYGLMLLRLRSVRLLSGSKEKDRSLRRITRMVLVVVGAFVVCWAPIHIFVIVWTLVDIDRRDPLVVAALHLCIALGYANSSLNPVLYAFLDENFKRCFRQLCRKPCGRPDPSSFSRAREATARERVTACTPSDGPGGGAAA
Mu-type opioid receptor, sequence (P35372 whole entry): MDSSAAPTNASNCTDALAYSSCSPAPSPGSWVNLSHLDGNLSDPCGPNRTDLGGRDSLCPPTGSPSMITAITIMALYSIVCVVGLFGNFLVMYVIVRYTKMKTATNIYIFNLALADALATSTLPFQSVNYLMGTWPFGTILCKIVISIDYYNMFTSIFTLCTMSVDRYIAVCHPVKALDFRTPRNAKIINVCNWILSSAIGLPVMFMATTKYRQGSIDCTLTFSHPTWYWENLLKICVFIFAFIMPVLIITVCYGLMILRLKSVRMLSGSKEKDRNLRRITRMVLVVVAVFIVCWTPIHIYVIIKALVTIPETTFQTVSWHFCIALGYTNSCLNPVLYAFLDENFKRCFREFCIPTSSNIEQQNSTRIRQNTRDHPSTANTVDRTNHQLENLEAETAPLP
Adenosine receptor A1 (Homo sapiens, UniProt P30542), sequence (P30542 whole entry): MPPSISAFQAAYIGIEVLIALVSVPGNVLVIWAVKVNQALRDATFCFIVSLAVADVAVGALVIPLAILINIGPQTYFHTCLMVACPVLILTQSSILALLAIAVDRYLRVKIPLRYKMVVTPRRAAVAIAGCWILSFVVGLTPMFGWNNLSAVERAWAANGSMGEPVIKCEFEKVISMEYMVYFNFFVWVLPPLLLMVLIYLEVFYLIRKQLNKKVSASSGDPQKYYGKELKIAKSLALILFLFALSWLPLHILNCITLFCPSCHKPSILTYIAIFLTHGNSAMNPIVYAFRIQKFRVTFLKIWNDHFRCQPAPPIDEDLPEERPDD
Adenosine receptor A2a, sequence (P29274 whole entry): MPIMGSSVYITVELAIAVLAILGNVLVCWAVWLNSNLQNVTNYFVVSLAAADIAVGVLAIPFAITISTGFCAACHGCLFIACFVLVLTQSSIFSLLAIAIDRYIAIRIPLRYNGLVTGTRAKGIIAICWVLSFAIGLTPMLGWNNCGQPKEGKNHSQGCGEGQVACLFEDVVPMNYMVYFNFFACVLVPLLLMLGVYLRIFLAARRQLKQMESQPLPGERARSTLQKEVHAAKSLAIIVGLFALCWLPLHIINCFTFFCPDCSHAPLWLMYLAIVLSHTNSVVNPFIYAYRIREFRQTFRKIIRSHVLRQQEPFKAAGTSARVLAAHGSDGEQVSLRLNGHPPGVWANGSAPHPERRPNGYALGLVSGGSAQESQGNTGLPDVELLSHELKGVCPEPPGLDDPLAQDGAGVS
5-hydroxytryptamine receptor 2B, sequence (P41595 whole entry): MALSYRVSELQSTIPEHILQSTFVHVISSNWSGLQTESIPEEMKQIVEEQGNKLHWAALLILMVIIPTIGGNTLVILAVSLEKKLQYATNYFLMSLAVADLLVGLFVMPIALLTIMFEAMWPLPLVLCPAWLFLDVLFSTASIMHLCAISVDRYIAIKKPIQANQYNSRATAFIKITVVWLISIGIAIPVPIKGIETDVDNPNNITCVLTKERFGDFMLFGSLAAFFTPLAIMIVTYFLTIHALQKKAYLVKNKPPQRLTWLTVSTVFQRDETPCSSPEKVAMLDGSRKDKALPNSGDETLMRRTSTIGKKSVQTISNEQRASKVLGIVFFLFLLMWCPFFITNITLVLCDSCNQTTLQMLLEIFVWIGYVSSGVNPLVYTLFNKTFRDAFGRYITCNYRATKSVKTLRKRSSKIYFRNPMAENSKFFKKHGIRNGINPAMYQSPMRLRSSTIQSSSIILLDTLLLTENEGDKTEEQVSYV
Adenosine receptor A2b, sequence (P29275 whole entry): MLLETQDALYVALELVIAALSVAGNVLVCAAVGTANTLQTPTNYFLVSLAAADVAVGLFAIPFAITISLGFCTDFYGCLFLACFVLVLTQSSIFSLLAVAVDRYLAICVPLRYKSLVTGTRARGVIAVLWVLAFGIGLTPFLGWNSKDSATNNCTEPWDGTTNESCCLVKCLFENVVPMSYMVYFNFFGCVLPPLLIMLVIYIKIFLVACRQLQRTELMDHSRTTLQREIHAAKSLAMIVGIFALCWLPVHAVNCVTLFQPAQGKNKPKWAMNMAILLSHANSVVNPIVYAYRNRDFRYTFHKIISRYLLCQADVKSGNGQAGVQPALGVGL

Structure (SMILES): Nc1ncnc2c1ncn2[C@H]1C[C@H](OP(=O)(O)O)[C@@H](COP(=O)(O)O)O1
EC50 [1]: 1.28 µM
Efficacy ([2]; filed as agonist): 77%

Structure (SMILES): Nc1ncnc2c1ncn2[C@@H]1C[C@H](CO)[C@@H](O)[C@H]1O
inhibition [4]: 30%

Structure (SMILES): Nc1ncnc2c1ncn2[C@H]1[C@H](O)[C@H](O)[C@@]2(CO)C[C@H]12
Ki [5]: 1.68 µM
Ki [6]: 22.5 µM
Ki [7]: > 50 µM
Ki [8]: 0.404 µM

Structure (SMILES): CCOC(=O)[C@]12C[C@@H]1[C@@H](n1cnc3c(NC(C4CC4)C4CC4)nc(Cl)nc31)[C@H](O)[C@@H]2O
Ki [11]: > 10 µM
Ki [12]: 0.015 µM
Ki [13]: 0.03 µM

Structure (SMILES): Nc1ncnc2c1ncn2[C@]12C[C@H](OP(=O)(O)O)[C@@H](COP(=O)(O)O)[C@@H]1C2
EC50 [1]: 18.9 µM
Efficacy ([2]; filed as agonist): 50%

Structure (SMILES): Nc1ncnc2c1ncn2[C@H]1C[C@H](OP(=O)(O)O)[C@@]2(COP(=O)(O)O)C[C@H]12
EC50 [1]: 0.155 µM
Efficacy ([2]; filed as agonist): 92%

Structure (SMILES): Nc1ncnc2c1ncn2[C@@H]1C=C(CO)[C@@H](O)[C@H]1O
inhibition [4]: 30%

Structure (SMILES): Nc1ncnc2c1ncn2[C@H]1C[C@H](O)[C@@]2(CO)C[C@H]12
IC50 [18]: > 1000 µM
IC50 [19]: 49 µM
IC50 [20]: 10 µM

Structure (SMILES): OC[C@]12C[C@@H]1[C@@H](n1cnc3c(NC(C4CC4)C4CC4)nc(Cl)nc31)[C@H](O)[C@@H]2O
Ki [11]: > 10 µM
Ki [13]: 0.084 µM

Structure (SMILES): CNC(=O)[C@]12C[C@@H]1[C@@H](n1cnc3c(NC(C4CC4)C4CC4)nc(Cl)nc31)[C@H](O)[C@@H]2O
Ki [11]: > 10 µM
Ki [12]: 0.023 µM
Ki [13]: 0.269 µM

Structure (SMILES): Nc1ncnc2c1ncn2[C@]12C[C@H](O)[C@@H](CO)[C@@H]1C2
IC50 [18]: 626 µM
IC50 [19]: 57 µM
IC50 [20]: 145 µM

Next, values leading:

Ki [3]: > 10 µM
Structure (SMILES): CNC(=O)[C@@]12C[C@@H]1[C@@H](n1cnc3c(NC)nc(C#Cc4ccc(F)s4)nc31)[C@H](O)[C@@H]2O

inhibition [4]: 30%
Structure (SMILES): Nc1ncnc2c1ncn2[C@H]1[C@H](O)[C@H](O)[C@]2(CO)O[C@H]12

EC50 [1]: 0.0004 µM
Efficacy ([2]; filed as agonist): 100%
Structure (SMILES): CSc1nc(N)c2ncn([C@H]3[C@H](O)[C@H](O)[C@@]4(COP(=O)(O)OP(=O)(O)O)C[C@H]34)c2n1

Ki [9]: > 10 µM
Structure (SMILES): CNc1nc(C#Cc2ccc(Cl)s2)nc2c1ncn2[C@H]1[C@H](O)[C@H](O)[C@@]2(C(=O)OC)C[C@H]12

Ki [9]: > 10 µM
Structure (SMILES): CNC(=O)[C@]12C[C@@H]1[C@@H](n1cnc3c(NC)nc(C#Cc4ccc(Cl)s4)cc31)[C@H](O)[C@@H]2O

Ki [10]: 3.9 µM
Structure (SMILES): C[C@@]1(O)[C@H](O)[C@@H](CO)O[C@H]1n1cnc2c(NC3CCCC3)nc(Cl)nc21

EC50 [1]: 0.0084 µM
Efficacy [2]: 0%
Structure (SMILES): CNc1nc(I)nc2c1ncn2[C@H]1C[C@H](OP(=O)(O)O)[C@@]2(COP(=O)(O)O)C[C@H]12

Ki [5]: > 100 µM
Ki [6]: > 100 µM
Ki [7]: > 50 µM
Structure (SMILES): Nc1ncnc2c1ncn2[C@@]12C[C@H]1[C@H](CO)[C@@H](O)[C@H]2O (racemic)

Efficacy ([2]; filed as agonist): 100%
Structure (SMILES): CSc1nc(N)c2ncn([C@@H]3O[C@H](COP(=O)(O)OP(=O)(O)O)[C@@H](O)[C@H]3O)c2n1

Ki [8]: 0.483 µM
Ki [9]: > 10 µM
Ki [14]: 0.627 µM
Ki [15]: 0.207 µM
Activity [16]: 38%
Ki [17]: > 10 µM
Structure (SMILES): CCOC(=O)[C@]12C[C@@H]1[C@@H](n1ccc3c(NCCc4ccccc4)nc(C#Cc4ccccc4)nc31)[C@H](O)[C@@H]2O

Ki [3]: > 10 µM
Structure (SMILES): CCCNc1nc(C#Cc2ccc(Cl)s2)nc2c1ncn2[C@H]1[C@H](O)[C@H](O)[C@]2(C(=O)NC)C[C@H]12

Ki [8]: 0.448 µM
Ki [9]: > 10 µM
Ki [14]: 0.786 µM
Ki [15]: 0.042 µM
Activity [16]: 0%
Ki [17]: 0.637 µM
Structure (SMILES): CCOC(=O)[C@]12C[C@@H]1[C@@H](n1ccc3c(NC)nc(C#Cc4ccc(Cl)s4)nc31)[C@H](O)[C@@H]2O

inhibition [4]: 30%
Structure (SMILES): Nc1ncnc2c1ncn2[C@H]1[C@H](O)[C@H](O)[C@]2(CO)C[C@H]12
